From patent publication US8664379B2, “Fused heterocyclic compounds as ion channel modulators” (Gilead Sciences, Inc., priority 2008, dated 2014)

Experiments:
[1] = molecular target: T1, hERG potassium channel (Homo sapiens, UniProt Q12809); experiment: hERG screening assay (PatchXpress patch clamp); assay type: cell-based; conditions: hERG expressed in CHO cells, peak current at -50 mV; for hERG Patch Clamp hERG % blk 1 μm: 1 μM test compound; for hERG Patch Clamp hERG % blk 10 μm: 10 μM test compound
T1 construct: expressed in transfected cells
T1 sequence (Q12809 whole entry): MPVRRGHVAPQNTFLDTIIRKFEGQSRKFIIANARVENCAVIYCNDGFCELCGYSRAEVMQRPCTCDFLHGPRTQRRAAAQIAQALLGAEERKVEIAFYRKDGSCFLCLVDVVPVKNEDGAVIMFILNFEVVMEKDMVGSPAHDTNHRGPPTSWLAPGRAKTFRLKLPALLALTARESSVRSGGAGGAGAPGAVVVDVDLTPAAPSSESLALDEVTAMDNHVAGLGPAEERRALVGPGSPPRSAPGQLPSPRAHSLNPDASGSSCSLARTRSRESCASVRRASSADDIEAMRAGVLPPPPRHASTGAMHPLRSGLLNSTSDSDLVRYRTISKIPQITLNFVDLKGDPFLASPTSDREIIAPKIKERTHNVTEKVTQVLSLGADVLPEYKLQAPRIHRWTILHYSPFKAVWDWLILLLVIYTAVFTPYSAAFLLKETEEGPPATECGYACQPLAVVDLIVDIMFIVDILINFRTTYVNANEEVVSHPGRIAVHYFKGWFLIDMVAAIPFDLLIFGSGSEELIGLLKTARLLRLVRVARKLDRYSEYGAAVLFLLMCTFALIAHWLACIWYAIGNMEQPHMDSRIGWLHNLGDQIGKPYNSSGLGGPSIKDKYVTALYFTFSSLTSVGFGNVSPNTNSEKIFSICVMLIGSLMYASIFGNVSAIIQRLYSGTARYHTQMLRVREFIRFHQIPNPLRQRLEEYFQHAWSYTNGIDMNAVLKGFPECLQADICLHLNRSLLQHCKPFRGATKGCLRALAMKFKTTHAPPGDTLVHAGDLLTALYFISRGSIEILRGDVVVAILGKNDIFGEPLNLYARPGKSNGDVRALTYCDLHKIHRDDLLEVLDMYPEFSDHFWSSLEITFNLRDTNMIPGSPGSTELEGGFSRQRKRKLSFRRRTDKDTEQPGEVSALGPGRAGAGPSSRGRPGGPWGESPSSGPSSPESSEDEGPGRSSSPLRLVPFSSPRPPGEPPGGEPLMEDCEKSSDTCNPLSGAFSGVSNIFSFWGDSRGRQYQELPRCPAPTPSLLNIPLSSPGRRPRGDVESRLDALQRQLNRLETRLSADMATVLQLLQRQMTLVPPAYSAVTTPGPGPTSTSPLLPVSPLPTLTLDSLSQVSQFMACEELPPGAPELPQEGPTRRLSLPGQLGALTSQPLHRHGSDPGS
Method: Compounds were screened to test their activity in blocking the hERG potassium channel. The hERG channel was heterologously expressed in a CHO (Chinese Hamster Ovary) cell line. Cells were maintained with standard tissue culture procedures and stable channel expression was maintained with 500 μg/ml G418 in the culture medium. Cells were harvested for testing on the PatchXpress automated patch clamp with Accumax (Innovative Cell Technologies, San Diego, Calif.) to isolate single cells.
The following solutions were used for electrophysiological recordings. The external solution contained: 2 mM CaCl2; 2 mM MgCl2; 4 mM KCl; 150 mM NaCl; 10 mM Glucose; 10 mM HEPES (pH 7.4 with 1M NaOH, osmolarity). The internal solution contained: 140 mM KCl, 10 mM MgCl2, 6 mM EGTA, 5 mM HEPES, 5 mM ATP (pH adjusted to 7.25 with KOH).
hERG channels are activated when the voltage is stepped to +20 mV from the −80 mV holding potential. During a 5 second step at +20 mV, the channels activated and then largely inactivated, so the currents were relatively small. Upon returning to −50 mV from +20 mV, hERG currents transiently became much larger as inactivation was rapidly removed and then the channel closed. The first step to −50 mV for 300 ms was used as a baseline for measuring the peak amplitude during the step to −50 mV after channel activation. The peak current at −50 mV was measured both under control conditions and after addition of compound.
All compounds were prepared as 10 mM DMSO stocks in glass vials. Stock solutions were mixed by vigorous vortexing and sonication for about 2 minutes at room temperature. For testing, compounds were diluted in glass vials using an intermediate dilution step in pure DMSO and then further diluted to working concentrations in external solution. Dilutions were prepared no longer than 20 minutes before use.
After achieving the whole-cell configuration, cells were monitored for 90 seconds to assess stability and washed with external solution for 66 seconds. The voltage protocol described above was then applied to the cells every 12 seconds and throughout the whole procedure. Only cells with stable recording parameters and meeting specified health criteria were allowed to enter the compound addition procedure.
External solution containing 0.1% DMSO (vehicle) was applied to the cells first to establish the control peak current amplitude. After allowing the current to stabilize for 3 to 5 minutes, 1 μM and then 10 μM test compounds were applied. Each compound concentration was added 4 times and cells were kept in test solution until the effect of the compound reached steady state or for a maximum of 12 minutes. After addition of test compound, a positive control (1 μM Cisapride) was added—it must block >95% of the current for the experiment to be considered valid. Washout in the external solution compartment was performed until the recovery of the current reached steady state. Data were analyzed using DataXpress, Clampfit (Molecular Devices, Inc., Sunnyvale) and Origin 7 (Originlab Corp.)

[2] = molecular target: wild-type human cardiac sodium channel, hNav1.5 (late sodium current) (Homo sapiens, UniProt Q14524); experiment: Late INa screening assay (PatchXpress whole cell patch clamp); assay type: cell-based; conditions: HEK293, 10 μM test compound; HEK293 cells expressing hNav1.5; late INa generated with 10 μM Tefluthrin (some experiments 50 nM ATX II); read-out: Late INa % blk (10 μM test cmpd)
Sequence of wild-type human cardiac sodium channel, hNav1.5 (late sodium current) (Q14524 whole entry): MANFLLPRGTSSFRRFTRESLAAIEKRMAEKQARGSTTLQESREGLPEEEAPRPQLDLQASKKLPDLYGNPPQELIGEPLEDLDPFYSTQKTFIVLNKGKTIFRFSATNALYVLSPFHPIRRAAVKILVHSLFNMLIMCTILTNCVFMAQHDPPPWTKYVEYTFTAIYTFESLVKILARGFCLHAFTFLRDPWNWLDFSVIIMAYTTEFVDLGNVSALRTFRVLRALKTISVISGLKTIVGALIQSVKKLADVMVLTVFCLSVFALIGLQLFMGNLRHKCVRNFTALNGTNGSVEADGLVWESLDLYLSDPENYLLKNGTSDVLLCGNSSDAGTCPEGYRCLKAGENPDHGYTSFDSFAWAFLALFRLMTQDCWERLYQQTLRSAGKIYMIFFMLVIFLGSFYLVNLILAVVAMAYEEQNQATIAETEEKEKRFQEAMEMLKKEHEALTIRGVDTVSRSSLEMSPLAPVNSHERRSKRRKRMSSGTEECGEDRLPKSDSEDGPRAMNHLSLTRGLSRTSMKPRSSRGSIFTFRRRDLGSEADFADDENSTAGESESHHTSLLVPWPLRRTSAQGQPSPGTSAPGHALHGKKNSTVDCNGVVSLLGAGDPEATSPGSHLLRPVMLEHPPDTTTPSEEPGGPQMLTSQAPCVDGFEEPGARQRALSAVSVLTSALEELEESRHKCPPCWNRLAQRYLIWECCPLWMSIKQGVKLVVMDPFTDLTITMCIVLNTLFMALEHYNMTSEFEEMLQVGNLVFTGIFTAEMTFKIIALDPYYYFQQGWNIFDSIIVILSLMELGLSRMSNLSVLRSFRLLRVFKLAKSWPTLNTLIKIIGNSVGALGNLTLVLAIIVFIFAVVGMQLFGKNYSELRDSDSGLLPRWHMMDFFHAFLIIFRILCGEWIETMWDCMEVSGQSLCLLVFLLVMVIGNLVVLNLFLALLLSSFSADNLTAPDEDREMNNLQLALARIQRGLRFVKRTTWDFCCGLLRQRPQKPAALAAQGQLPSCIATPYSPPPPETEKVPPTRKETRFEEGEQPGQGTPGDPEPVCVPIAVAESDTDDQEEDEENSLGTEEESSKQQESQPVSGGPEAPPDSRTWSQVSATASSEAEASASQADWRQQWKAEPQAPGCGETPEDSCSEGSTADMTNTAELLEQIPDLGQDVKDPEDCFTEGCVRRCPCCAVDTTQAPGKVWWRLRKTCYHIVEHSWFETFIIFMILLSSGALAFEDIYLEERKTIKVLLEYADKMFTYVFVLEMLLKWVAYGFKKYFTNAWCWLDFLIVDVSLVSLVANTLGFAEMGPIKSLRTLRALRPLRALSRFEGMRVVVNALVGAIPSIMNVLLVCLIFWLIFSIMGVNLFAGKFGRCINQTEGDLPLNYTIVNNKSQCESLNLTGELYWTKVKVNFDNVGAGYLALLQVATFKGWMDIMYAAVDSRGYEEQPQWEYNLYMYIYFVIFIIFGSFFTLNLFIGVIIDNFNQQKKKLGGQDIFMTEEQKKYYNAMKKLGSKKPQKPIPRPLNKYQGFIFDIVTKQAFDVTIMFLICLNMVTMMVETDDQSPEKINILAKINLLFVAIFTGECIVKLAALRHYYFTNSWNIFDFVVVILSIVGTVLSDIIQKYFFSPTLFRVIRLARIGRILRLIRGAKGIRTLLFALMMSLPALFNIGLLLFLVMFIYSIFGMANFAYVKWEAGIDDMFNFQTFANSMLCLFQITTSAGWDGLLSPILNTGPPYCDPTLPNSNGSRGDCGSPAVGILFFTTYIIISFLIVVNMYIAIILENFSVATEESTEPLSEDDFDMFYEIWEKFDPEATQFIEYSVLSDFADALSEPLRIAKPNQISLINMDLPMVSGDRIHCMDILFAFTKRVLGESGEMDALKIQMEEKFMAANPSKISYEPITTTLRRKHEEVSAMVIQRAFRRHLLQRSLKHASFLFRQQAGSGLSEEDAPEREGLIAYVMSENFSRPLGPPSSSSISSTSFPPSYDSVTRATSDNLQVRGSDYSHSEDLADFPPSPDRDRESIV
Method: The late sodium current (Late INa) and peak sodium current (Peak INa) assays were performed on an automated electrophysiology platform, PatchXpress 7000A (MDS Analytical Technologies, Sunnyvale, Calif.), which uses the whole cell patch clamp technique to measure currents through the cell membrane of up to 16 cells at a time. The assay used an HEK293 (human embryonic kidney) cell line heterologously expressing the wild-type human cardiac sodium channel, hNav1.5, purchased from Millipore (Billerica, Mass.). No beta subunits were coexpressed with the Na channel alpha subunit. Cells were maintained with standard tissue culture procedures and stable channel expression was maintained with 400 μg/ml Geneticin in the culture medium. Cells isolated for use on PatchXpress were incubated for 5 minutes in Versene 1× and then for 2 minutes in 0.0125% Trypsin-EDTA (both at 37° C.) to ensure that 80-90% of the cells are single and not part of a cell cluster. Experiments were carried out at 24-27° C.
For both the Late INa and Peak INa assays, series resistance compensation was set to 50% and whole-cell compensation was performed automatically. Currents were low-pass filtered at 10 kHz and digitized at 31.25 kHz. Currents through open sodium channels were automatically recorded and stored in the DataXpress2 database (MDS Analytical Technologies, Sunnyvale, Calif.). Analysis was performed using DataXpress2 analysis software and data are compiled in Excel.
Compound stocks were routinely made in glass vials to 10 mM in dimethyl sulfoxide (DMSO). In some cases, when compounds were not soluble in DMSO, they were made in 100% ethanol. Stocks were sonicated as necessary. The extracellular solution for screening Late INa was composed of: 140 mM NaCl, 4 mM KCl, 1.8 mM CaCl2, 0.75 mM MgCl2, and 5 mM HEPES with pH adjusted to 7.4 using NaOH. The extracellular solution for screening Peak INa was composed of: 20 mM NaCl, 120 mM N-methyl-D glucamine, 4 mM KCl, 1.8 mM CaCl2, 0.75 mM MgCl2, and 5 mM HEPES with pH adjusted to 7.4 using HCl. The intracellular solution used to perfuse the inside of the cells for both the Late INa and Peak INa assays contains: 120 mM CsF, 20 mM CsCl, 5 mM EGTA, 5 mM HEPES and pH adjusted to 7.4 with CsOH. Compounds were diluted in extracellular solution to 10 μM in glass vials and then transferred to glass well plates before robotic addition to the cells. The 0Na extracellular solution used at the end of each experiment for the Late INa and Peak INa assays to measure baseline current contained: 140 mM N-methyl-D-glucamine; 4 mM KCl; 1.8 mM CaCl2; 0.75 mM MgCl2; 5 mM HEPES and pH was adjusted to 7.4 with HCl.
For the Late INa assay, sodium channels were activated every 10 seconds (0.1 Hz) by depolarizing the cell membrane to −20 mV for 250 milliseconds (ms) from a holding potential of −120 mV. In response to a −20 mV voltage step, typical Nav1.5 sodium currents activated rapidly to a peak negative current and then inactivated nearly completely within 3-4 ms.
All compounds were tested to determine their activity in blocking the late sodium current. Late INa current is generated by adding 10 μM Tefluthrin (pyrethroid) to the extracellular solution while recording Na currents. For some experiments, 50 nM ATX II (sea anemone toxin), another late INa activator, was used to generate the late component. Both activators generate late components that are large enough that block of the late component by compounds can be measured easily. For the purposes of the screening, late INa is defined as the mean current between 225 ms and 250 ms after stepping to −20 mV to activate Na channels. After establishing the whole cell recording configuration, late INa activators were added to each well 4 times over a 16-17 minute period so that the late component of the Na current reached a stable value. Compounds were then added (typically at 10 μM), in the presence of late INa activator, with 3 additions over the course of 7 or 8 minutes. […]

Compound | hERG Patch Clamp hERG % blk 1 μm [1] | hERG Patch Clamp hERG % blk 10 μm [1] | inhibition at 10 µM [2]
O=C1CCc2cc(-c3cccc(F)c3)ccc2N1 [Compound 1, 6-(3-fluorophenyl)-3,4-dihydroquinolin-2(1H)-one] | 10% | 19% | 74%
O=C1CCc2cc(-c3ccccc3)ccc2N1 [Compound 4, 6-phenyl-3,4-dihydroquinolin-2(1H)-one] | 10% | 16% | 48%
O=C(O)CN1C(=O)CCc2cc(-c3ccc(C(F)(F)F)cc3)ccc21 [Compound 44, {2-oxo-6-[4-(trifluoromethyl)phenyl]-3,4-dihydroquinolin-1(2H)-yl}acetic acid] | 10% | 10% | –
NC(=O)CN1C(=O)CCc2cc(-c3ccc(F)cc3F)ccc21 [Compound 55, 2-[6-(2,4-difluorophenyl)-2-oxo-3,4-dihydroquinolin-1(2H)-yl]acetamide] | – | – | 14%
NC(=O)CN1C(=O)CCc2cc(-c3ccc(C(F)(F)F)cc3)ccc21 [Compound 56, 2-{2-oxo-6-[4-(trifluoromethyl)phenyl]-3,4-dihydroquinolin-1(2H)-yl}acetamide] | – | – | 14%
O=C(O)CN1C(=O)CCc2cc(-c3cccc(F)c3)ccc21 [Compound 59, [6-(3-fluorophenyl)-2-oxo-3,4-dihydroquinolin-1(2H)-yl]acetic acid] | – | – | 10%
CC(C)(C)OC(=O)CN1C(=O)CCc2cc(-c3ccc(Oc4ccccc4)cc3)ccc21 [Compound 66, tert-butyl [2-oxo-6-(4-phenoxyphenyl)-3,4-dihydroquinolin-1(2H)-yl]acetate] | – | – | 27%
CC(C)(C)OC(=O)CN1C(=O)CCc2cc(-c3ccc(Cl)c(C(F)(F)F)c3)ccc21 [Compound 67, tert-butyl {6-[4-chloro-3-(trifluoromethyl)phenyl]-2-oxo-3,4-dihydroquinolin-1(2H)-yl}acetate] | – | – | 74%
O=C(O)CN1C(=O)CCc2cc(-c3ccc(Cl)cc3)ccc21 [Compound 68, [6-(4-chlorophenyl)-2-oxo-3,4-dihydroquinolin-1(2H)-yl]acetic acid] | – | – | 23%
O=C(O)CN1C(=O)CCc2cc(-c3ccc(C(F)(F)F)c(F)c3)ccc21 [Compound 74, 2-(6-(3-fluoro-4-(trifluoromethyl)phenyl)-2-oxo-3,4-dihydroquinolin-1(2H)-yl)acetic acid] | – | – | 20%
COc1cc2c(cc1-c1ccc(Cl)cc1)CCC(=O)N2 [Compound 77, 6-(4-chlorophenyl)-7-methoxy-3,4-dihydroquinolin-2(1H)-one] | – | – | 72%
COc1c(-c2ccc(Cl)cc2)cc2c(c1Br)NC(=O)CC2 [Compound 78, 8-bromo-6-(4-chlorophenyl)-7-methoxy-3,4-dihydroquinolin-2(1H)-one] | – | – | 34%
COc1cc2c(cc1-c1ccc(C(F)(F)F)cc1)CCC(=O)N2CC(=O)O [Compound 79, 2-(7-methoxy-2-oxo-6-(4-(trifluoromethyl)phenyl)-3,4-dihydroquinolin-1(2H)-yl)acetic acid] | – | – | 12%
COc1cc2c(cc1-c1ccc(Cl)cc1)CCC(=O)N2CC(=O)O [Compound 80, 2-(6-(4-chlorophenyl)-7-methoxy-2-oxo-3,4-dihydroquinolin-1(2H)-yl)acetic acid] | – | – | 17%
COc1c(-c2ccc(Cl)cc2)cc2c(c1-c1ccc(Cl)cc1)N(CC(=O)O)C(=O)CC2 [Compound 81, 2-(6,8-bis(4-chlorophenyl)-7-methoxy-2-oxo-3,4-dihydroquinolin-1(2H)-yl)acetic acid] | – | – | 30%
COc1cc2c(cc1-c1ccc(C(F)(F)F)c(F)c1)CCC(=O)N2 [Compound 82, 6-(3-fluoro-4-(trifluoromethyl)phenyl)-7-methoxy-3,4-dihydroquinolin-2(1H)-one] | – | – | 54%
O=C(O)c1ccc(CN2C(=O)CCc3cc(-c4ccc(C(F)(F)F)cc4)ccc32)cc1 [Compound 86, 4-((2-oxo-6-(4-(trifluoromethyl)phenyl)-3,4-dihydroquinolin-1(2H)-yl)methyl)benzoic acid] | – | – | 13%
COC(=O)c1ccc(CN2C(=O)CCc3cc(-c4ccc(C(F)(F)F)cc4)ccc32)cc1 [Compound 87, methyl 4-((2-oxo-6-(4-(trifluoromethyl)phenyl)-3,4-dihydroquinolin-1(2H)-yl)methyl)benzoate] | – | – | 20%
COc1ccccc1OCC(O)CN1C(=O)CCc2cc(-c3ccc(F)cc3F)ccc21 (centres unmarked) [Compound 88, 6-(2,4-difluorophenyl)-1-(2-hydroxy-3-(2-methoxyphenoxy)propyl)-3,4-dihydroquinolin-2(1H)-one] | – | – | 40%
N#CCN1C(=O)CCc2cc(-c3ccc(C(F)(F)F)cc3)ccc21 [Compound 90, 2-(2-oxo-6-(4-(trifluoromethyl)phenyl)-3,4-dihydroquinolin-1(2H)-yl)acetonitrile] | – | – | 22%
CCOC(=O)c1cccc(CN2C(=O)CCc3cc(-c4ccc(C(F)(F)F)cc4)ccc32)c1 [Compound 91, ethyl 3-((2-oxo-6-(4-(trifluoromethyl)phenyl)-3,4-dihydroquinolin-1(2H)-yl)methyl)benzoate] | – | – | 31%
